Key:
[1] = system: osteoblasts (mouse MC3T3-E1); assay: ALP (Alkaline phosphatase) assay, osteoblast activity; assay type: cell-based; conditions: MC3T3-E1, 14 days, percentage against control
Description: Effect of KP4 to KP6 on proliferation and differentiation of osteoblast were confirmed using ALP (Alkaline phosphatase) assay, a method for measuring osteoblast activity.
Alkaline phosphatase (ALP), which is present in the cell membranes of osteoblasts, is known as a marker of osteoblast activity and is a regulator of inorganic phosphate transport, cell division or differentiation during calcification. Therefore, ALP activity was measured to determine the effect of the compounds of the present invention on the activity of osteoblasts. ALP activity was indirectly calculated by measuring the amount of p-nitrophenol, which is produced from hydrolysis of p-nitrophenyl phosphate (pNPP, Sigma, St. Louis, Mo., USA) in which ALP act as a catalyst, using a microplate reader at 405 nm wavelength.
Specifically, osteoblasts (mouse MC3T3-E1) were aliquoted into a 96-well plate (3×10^3 cells/100 μL/well) with α-MEM medium containing ascorbic acid (50 μg/mL) and 10 mM β-glycerophosphate, a differentiation factors of osteoblast. Then, KP4 to KP6 of the present invention, and osmundacetone were added at a final concentration of 10 μM and 50 μM, followed by changing medium every 72 hours and incubating for 14 days. After 14 days, the culture medium was removed from each well, washed three times with PBS, lysed with 0.2% Nonidet P-40/10 mmol/L MgCl2, and then treated ultrasonic wave with sosonifier cell disrupter (Model W-380, Heat Systems-Ultrasonics Inc., Farmingdale, N.Y.) for 3 minutes. The cell lysate was centrifuged at 1500 g for 10 minutes and the supernatant was collected to measure ALP activity. To account for changes in ALP activity according to cell number differences, total protein levels were measured using bicinchoninic acid (BCA) protein assay kit with bovine serum albumin as the standard protein, and enzyme activity was expressed as a percentage against the control group without the compound treatment.

[2] = system: HT1080 human fibrosarcoma cell line; assay: MTT assay, cancer cells HT1080; assay type: cell-based; conditions: 48 hours
Text: (§1) The cytotoxicity against normal cells and cancer cells was confirmed using the MTT assay for the novel compounds KP2 to KP8 prepared in Example 1.
(§2) MTT assay method is as follows:
(§3) Normal cells (RAW264.7 rat macrophage cell line (osteoblast progenitor cell) and NIH3T3 mouse fibroblast line) and cancer cells (AGS human gastric cancer cell line, A549 human lung cancer cell line, HepG2 human liver cancer cell line, HCT116 human colon cancer cell line, PC3 human prostate cancer Cell line, Caki-1 human kidney cancer cell line, T24 human bladder cancer cell line, HT1080 human fibrosarcoma cell line, B16F10 mouse melanoma cell line) were cultured in 5% CO2 in 96-well plates containing DMEM with 10% FBS (fetal bovine serum). After incubation, KP2 to KP8 and controls (osmundacetone and 4-hydroxybenzalacetone) were added to the cell medium and incubated for 48 hours. Thereafter, 100 μl of MTT (0.5 mg/mL phosphate buffered saline) was added, followed by incubation for 2 hours. 100 μl of DMSO was added to each well, followed by incubation for 10 minutes, and the absorbance was measured at 550 nm using a microplate reader (SPCTRA MAX 340PC, Molecular Devices, USA). Absorbance is calculated by the formula below as an indicator of the number of cells that survived, and reproducibility was confirmed by three experiments.
(§4) The rate of cell proliferation (%)=OD550(sample)/OD550(control)

[3] = system: AGS human gastric cancer cell line; assay: MTT assay, cancer cells AGS; assay type: cell-based; conditions: 48 hours
Text: as §1, §2, §3, §4

[4] = system: Caki-1 human kidney cancer cell line; assay: MTT assay, cancer cells Caki-1; assay type: cell-based; conditions: 48 hours
Text: as §1, §2, §3, §4

[5] = system: NIH3T3 mouse fibroblast line; assay: MTT assay, normal cells NIH3T3; assay type: cell-based; conditions: MTT assay, 48 hours, NTH3T3
Text: as §1, §2, §3, §4

[6] = system: RAW264.7 rat macrophage cell line; assay: MTT assay, normal cells RAW264.7; assay type: cell-based; conditions: MTT assay, 48 hours, RAW264.7
Text: as §1, §2, §3, §4

[7] = system: HCT116 human colon cancer cell line; assay: MTT assay, cancer cells HCT116; assay type: cell-based; conditions: MTT assay, 48 hours, HCT116
Text: as §1, §2, §3, §4

[8] = system: HepG2 human liver cancer cell line; assay: MTT assay, cancer cells HepG2; assay type: cell-based; conditions: MTT assay, 48 hours, HepG2
Text: as §1, §2, §3, §4

[9] = system: B16F10 mouse melanoma cell line; assay: MTT assay, cancer cells B16F10; assay type: cell-based; conditions: 48 hours, H16F10
Text: as §1, §2, §3, §4

[10] = system: A549 human lung cancer cell line; assay: MTT assay, cancer cells A549; assay type: cell-based; conditions: MTT assay, 48 hours, A549
Text: as §1, §2, §3, §4

[11] = system: PC3 human prostate cancer Cell line; assay: MTT assay, cancer cells PC3; assay type: cell-based; conditions: 48 hours
Text: as §1, §2, §3, §4

[12] = system: T24 human bladder cancer cell line; assay: MTT assay, cancer cells T24; assay type: cell-based; conditions: MTT assay, 48 hours, T24
Text: as §1, §2, §3, §4

[13] = system: osteoclast differentiation from bone marrow cells (RANKL and M-CSF); assay: TRAP assay, osteoclast differentiation and proliferation; assay type: cell-based, C57BL/6 mice; conditions: TRAP-positive multinucleated cells, mouse bone marrow cells, 6-7 days; read-out: osteoclast differentiation inhibitory activity IC50
Description: The specific method of the TRAP assay is as follows:
The tibia and femur were aseptically excised from 6 to 8 weeks old male C57BL/6 mice, and bone marrow cells were collected aseptically with a syringe (21G, Korea Green Cross). Bone marrow cells were suspended in 500 μl of -MEM medium (Gibco BRL Co.) containing sodium bicarbonate (2.0 g/L), streptomycin (100 mg/L) and penicillin ([…]), and aliquoted into a 48-well plate, and assay was carried out with triplicate. The progenitor cells of osteoclasts, monocytes, were isolated and treated with RANKL and M-CSF, which are differentiation promoters, to differentiate into osteoclasts within 5-7 days.
1) Sample preparation: KP2 to KP8 (0.5 μM, 1 μM, 5 μM or 10 μM), Fosamax (0.5 μM, 1 μM, 5 μM, or 10 μM) and the like were dissolved in DMSO (dimethylsulfoxide) or sterile distilled water at appropriate concentrations, respectively.
2) Sample administration: The Samples were continuously administered to the medium at 1:20 (v/v; 25 μL of sample per 500 μL of medium) from the first day of culture of bone marrow cells, and the medium was replaced at 3 days intervals.
3) Osteoclast differentiation measurement: Osteoclasts were defined as TRAP-positive multinucleated cells stained with TRAP. […] The reaction reagents were stored in the refrigerator until use.
Bone marrow cells were cultured in a medium containing differentiation factors for 6-7 days, and then the medium was removed, washed with PBS, and fixed in PBS containing 10% formalin for 2-5 minutes. After fixed for 1 minute with a 1:1 mixture of ethanol and acetone, and dried. The fixed cells were treated with TRAP staining solution for 60 minutes at 37° C. with light blocking, washed with PBS, and then stained with Hematoxylin.
Among the TRAP-positive cells in the microscope field, cells with two or more nuclei were determined as osteoclasts and the number of cells was measured.

CC(=O)/C=C/c1ccc(O)c(O)c1 [Osmundacetone, reference compound]
% Activation of ALP activity ([1]; 10 μM): 115 ± 9.4%
% Activation of ALP activity ([1]; 50 μM): 279 ± 61%
LD63 Cancer cell HT1080 [2]: >5000 µM
LD63 Cancer cell AGS [3]: 56.1 ± 2.1 µM
LD63 Cancer cell Caki-1 [4]: 695 ± 14 µM
LD50 Normal cells NTH3T3 [5]: >5000 µM
LD50 Normal cells RAW264.7 [6]: 529 ± 41 µM
LD63 Cancer cell HCT116 [7]: 689 ± 27 µM
LD63 Cancer cell HepG2 [8]: >5000 µM
Cytotoxicity, B16F10 cells [9]: 64.9 ± 59 µM
LD63 Cancer cell A549 [10]: >5000 µM
LD63 Cancer cell PC3 [11]: 60.6 ± 14 µM
LD63 Cancer cell T24 [12]: 2000 ± 250 µM
IC50 [13]: 8 µM

Reference: patent US11629121B2, “Benzylideneacetone derivative and use thereof” (KORPHARM CO., LTD., priority 2017, dated 2023)
